In US10870647B2, “Imidazopyridine derivative, method for preparing same, and pharmaceutical composition containing same as active ingredient for preventing or treating cancer” (DAEGU-GYEONGBUK MEDICAL INNOVATION FOUNDATION, priority 2016, dated 2020):
Read-outs that look alike come from different tables or passages of the source.

Tests used:
Assay in all cases: Kinase selectivity, scanMAX Kinase assay panel (DiscoverX), % control at 1 uM
Assay type in all cases: binding
[1] = target: T1, scanMAX Kinase assay panel (Homo sapiens, UniProt P00519, F317L); settings: 1 uM, read-out: Percent Control (%)
T1 construct: purchased DiscoverX
In short: (§1)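 Compounds were tested at 1 uM in DMSO against each enzyme in the panel. Percent control was calculated as (compound − positive control)/(negative control − positive control) × 100, and a compound was scored active on a kinase when this value fell below 35.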

[2] = target: T2, scanMAX Kinase assay panel (Homo sapiens, UniProt P10721, V559D/V654A); settings: KIT (V559D, V654A); 1 uM; read-out: Percent Control (%)
T2 construct: purchased DiscoverX
In short: as §1

[3] = target: T3, scanMAX Kinase assay panel (Homo sapiens, UniProt Q14012); settings: CAMK1; 1 uM; read-out: Percent Control (%)
T3 construct: purchased DiscoverX
In short: as §1

[4] = target: T4, scanMAX Kinase assay panel (Homo sapiens, UniProt O94921); settings: PFTK1; 1 uM; read-out: Percent Control (%)
T4 construct: purchased DiscoverX
In short: as §1

[5] = target: T5, scanMAX Kinase assay panel (Homo sapiens, UniProt Q08881); settings: ITK; 1 uM; read-out: Percent Control (%)
T5 construct: purchased DiscoverX
T5 sequence (Q08881 1-620): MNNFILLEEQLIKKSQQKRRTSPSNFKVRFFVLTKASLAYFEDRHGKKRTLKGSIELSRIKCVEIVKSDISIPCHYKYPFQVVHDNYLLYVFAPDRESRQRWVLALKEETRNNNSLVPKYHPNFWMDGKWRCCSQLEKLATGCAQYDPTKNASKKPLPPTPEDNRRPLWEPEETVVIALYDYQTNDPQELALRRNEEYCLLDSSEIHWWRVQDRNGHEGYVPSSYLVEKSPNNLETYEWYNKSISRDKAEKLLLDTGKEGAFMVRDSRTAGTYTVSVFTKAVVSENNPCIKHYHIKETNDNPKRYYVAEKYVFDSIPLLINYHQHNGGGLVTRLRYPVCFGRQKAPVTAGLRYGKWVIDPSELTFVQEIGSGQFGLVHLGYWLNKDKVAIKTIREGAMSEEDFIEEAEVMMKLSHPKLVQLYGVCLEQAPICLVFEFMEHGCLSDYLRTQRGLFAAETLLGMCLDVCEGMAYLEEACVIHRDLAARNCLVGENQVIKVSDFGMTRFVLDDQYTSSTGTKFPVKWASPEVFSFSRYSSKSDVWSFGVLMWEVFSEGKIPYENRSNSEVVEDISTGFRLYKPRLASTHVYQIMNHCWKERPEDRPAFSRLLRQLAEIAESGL
In short: as §1

[6] = target: T6, scanMAX Kinase assay panel (Homo sapiens, UniProt Q9H422); settings: HIPK3; 1 uM; read-out: Percent Control (%)
T6 construct: purchased DiscoverX
In short: as §1

[7] = target: T7, scanMAX Kinase assay panel (Homo sapiens, UniProt Q6P3R8); settings: NEK5; 1 uM; read-out: Percent Control (%)
T7 construct: purchased DiscoverX
T7 sequence (Q6P3R8 1-708): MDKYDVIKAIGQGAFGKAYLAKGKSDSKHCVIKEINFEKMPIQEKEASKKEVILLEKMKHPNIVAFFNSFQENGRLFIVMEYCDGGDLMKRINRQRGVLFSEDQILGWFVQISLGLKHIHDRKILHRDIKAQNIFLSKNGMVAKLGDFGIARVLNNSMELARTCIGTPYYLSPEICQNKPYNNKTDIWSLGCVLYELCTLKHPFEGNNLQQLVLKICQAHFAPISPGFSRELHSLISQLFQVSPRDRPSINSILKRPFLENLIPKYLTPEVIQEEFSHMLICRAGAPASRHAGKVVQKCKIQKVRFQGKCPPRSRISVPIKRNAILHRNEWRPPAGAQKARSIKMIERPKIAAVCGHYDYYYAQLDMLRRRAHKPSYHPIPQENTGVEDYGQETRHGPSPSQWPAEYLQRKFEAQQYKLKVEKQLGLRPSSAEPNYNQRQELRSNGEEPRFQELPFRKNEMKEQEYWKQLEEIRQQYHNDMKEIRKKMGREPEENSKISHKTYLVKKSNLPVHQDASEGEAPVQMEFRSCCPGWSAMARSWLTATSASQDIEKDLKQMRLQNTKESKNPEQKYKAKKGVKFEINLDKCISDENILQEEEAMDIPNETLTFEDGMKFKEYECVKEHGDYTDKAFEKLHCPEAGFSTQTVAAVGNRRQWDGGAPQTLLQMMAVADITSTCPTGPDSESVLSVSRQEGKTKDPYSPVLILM
In short: as §1

[8] = target: T8, scanMAX Kinase assay panel (Homo sapiens, UniProt P08581); settings: MET; 1 uM; read-out: Percent Control (%)
T8 construct: purchased DiscoverX
In short: as §1

[9] = target: T9, scanMAX Kinase assay panel (Homo sapiens, UniProt P48736); settings: PIK3CG; 1 uM; read-out: Percent Control (%)
T9 construct: purchased DiscoverX
In short: as §1

[10] = target: T10, scanMAX Kinase assay panel (Homo sapiens, UniProt Q16539); settings: p38-alpha; 1 uM; read-out: Percent Control (%)
T10 construct: purchased DiscoverX
In short: as §1

T6 sequence (Q9H422 whole entry): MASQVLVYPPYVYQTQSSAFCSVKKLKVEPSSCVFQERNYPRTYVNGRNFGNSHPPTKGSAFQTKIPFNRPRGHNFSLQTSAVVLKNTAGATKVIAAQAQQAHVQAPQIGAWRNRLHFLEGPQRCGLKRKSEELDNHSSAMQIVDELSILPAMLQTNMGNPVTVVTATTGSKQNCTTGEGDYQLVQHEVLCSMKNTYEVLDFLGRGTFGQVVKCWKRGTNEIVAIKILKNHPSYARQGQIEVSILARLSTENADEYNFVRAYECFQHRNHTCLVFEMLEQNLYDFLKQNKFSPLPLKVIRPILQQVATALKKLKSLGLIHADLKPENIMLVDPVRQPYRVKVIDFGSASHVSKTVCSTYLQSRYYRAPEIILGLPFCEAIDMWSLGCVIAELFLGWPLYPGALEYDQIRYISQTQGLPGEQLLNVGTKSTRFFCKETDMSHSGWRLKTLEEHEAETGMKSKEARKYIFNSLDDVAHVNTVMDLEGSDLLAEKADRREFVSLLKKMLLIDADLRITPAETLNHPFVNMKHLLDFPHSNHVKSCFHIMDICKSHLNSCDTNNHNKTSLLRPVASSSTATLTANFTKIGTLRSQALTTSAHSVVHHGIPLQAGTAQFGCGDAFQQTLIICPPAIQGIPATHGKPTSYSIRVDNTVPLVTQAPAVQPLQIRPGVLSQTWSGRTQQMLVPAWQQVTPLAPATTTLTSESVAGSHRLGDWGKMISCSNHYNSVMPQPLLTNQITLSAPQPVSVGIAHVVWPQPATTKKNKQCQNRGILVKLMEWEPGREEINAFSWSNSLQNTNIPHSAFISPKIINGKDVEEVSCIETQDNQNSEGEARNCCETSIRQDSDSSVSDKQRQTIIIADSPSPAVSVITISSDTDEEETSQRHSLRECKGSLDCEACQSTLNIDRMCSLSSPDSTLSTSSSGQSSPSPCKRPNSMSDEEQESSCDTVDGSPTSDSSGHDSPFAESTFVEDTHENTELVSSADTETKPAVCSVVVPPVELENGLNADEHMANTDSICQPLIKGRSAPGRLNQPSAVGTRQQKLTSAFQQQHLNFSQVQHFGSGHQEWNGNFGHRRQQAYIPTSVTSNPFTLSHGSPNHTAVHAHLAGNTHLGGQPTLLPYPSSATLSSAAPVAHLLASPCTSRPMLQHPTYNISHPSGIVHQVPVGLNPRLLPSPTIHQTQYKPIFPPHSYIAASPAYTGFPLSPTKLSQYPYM
T2 sequence (P10721 26-976 V559D/V654A): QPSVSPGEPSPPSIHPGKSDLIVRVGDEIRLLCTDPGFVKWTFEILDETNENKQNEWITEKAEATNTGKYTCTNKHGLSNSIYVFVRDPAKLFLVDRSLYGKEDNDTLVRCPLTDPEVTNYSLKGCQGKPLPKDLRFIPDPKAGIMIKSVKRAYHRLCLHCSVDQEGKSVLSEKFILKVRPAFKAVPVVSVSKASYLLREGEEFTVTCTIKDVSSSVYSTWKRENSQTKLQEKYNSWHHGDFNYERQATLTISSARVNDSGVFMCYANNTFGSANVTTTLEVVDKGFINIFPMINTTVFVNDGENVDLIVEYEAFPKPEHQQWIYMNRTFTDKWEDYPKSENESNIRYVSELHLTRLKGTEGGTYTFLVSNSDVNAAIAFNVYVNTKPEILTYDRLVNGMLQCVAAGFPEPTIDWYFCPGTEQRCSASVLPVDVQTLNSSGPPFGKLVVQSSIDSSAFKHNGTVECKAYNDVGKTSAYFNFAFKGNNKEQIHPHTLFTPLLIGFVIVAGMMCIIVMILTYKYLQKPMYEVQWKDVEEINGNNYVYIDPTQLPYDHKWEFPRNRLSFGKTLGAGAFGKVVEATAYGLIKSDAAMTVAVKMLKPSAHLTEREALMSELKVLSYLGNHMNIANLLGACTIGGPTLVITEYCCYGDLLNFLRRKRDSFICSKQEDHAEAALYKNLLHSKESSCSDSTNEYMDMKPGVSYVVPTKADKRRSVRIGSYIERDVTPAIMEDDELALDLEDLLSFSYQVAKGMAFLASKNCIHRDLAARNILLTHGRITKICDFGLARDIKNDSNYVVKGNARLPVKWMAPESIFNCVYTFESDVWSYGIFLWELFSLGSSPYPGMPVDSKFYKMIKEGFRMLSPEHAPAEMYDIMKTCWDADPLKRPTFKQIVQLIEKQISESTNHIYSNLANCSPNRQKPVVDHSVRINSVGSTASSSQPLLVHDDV
T8 sequence (P08581 25-1390): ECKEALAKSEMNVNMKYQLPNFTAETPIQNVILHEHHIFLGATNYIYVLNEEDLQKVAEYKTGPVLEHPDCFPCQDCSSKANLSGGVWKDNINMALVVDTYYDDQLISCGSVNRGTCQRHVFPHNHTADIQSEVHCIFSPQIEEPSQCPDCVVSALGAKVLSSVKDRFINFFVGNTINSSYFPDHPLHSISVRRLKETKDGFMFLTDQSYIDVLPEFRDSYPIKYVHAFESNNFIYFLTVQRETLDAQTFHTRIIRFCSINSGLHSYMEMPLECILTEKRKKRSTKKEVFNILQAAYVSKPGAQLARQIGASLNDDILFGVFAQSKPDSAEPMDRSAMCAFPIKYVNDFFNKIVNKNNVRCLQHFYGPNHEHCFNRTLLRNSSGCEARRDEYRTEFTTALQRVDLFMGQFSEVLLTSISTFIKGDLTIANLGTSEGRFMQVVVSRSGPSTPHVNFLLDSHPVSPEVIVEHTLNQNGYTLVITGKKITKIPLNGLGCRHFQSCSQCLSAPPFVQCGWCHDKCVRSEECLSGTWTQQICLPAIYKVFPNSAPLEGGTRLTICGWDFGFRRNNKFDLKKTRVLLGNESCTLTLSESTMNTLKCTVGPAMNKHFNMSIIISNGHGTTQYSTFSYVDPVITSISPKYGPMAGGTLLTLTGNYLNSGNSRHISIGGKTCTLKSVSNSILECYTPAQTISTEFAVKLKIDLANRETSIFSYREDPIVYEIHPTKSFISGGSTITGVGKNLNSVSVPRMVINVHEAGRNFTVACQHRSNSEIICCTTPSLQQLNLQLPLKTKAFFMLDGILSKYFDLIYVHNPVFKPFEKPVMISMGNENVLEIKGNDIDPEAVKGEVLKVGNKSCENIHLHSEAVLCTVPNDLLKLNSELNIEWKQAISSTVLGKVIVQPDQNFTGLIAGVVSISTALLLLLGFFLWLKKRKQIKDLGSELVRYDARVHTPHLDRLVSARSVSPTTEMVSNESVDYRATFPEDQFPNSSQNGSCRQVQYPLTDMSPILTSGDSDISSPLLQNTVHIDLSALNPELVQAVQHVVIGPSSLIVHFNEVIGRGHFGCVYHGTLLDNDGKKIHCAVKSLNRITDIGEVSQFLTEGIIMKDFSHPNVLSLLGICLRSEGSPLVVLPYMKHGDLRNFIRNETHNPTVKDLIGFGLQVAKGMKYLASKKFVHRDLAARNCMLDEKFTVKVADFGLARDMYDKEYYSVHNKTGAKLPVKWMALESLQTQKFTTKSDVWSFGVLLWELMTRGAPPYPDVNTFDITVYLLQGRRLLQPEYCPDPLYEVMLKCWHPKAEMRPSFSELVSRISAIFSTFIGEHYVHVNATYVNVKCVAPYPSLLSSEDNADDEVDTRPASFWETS
T1 sequence (P00519 whole entry F317L): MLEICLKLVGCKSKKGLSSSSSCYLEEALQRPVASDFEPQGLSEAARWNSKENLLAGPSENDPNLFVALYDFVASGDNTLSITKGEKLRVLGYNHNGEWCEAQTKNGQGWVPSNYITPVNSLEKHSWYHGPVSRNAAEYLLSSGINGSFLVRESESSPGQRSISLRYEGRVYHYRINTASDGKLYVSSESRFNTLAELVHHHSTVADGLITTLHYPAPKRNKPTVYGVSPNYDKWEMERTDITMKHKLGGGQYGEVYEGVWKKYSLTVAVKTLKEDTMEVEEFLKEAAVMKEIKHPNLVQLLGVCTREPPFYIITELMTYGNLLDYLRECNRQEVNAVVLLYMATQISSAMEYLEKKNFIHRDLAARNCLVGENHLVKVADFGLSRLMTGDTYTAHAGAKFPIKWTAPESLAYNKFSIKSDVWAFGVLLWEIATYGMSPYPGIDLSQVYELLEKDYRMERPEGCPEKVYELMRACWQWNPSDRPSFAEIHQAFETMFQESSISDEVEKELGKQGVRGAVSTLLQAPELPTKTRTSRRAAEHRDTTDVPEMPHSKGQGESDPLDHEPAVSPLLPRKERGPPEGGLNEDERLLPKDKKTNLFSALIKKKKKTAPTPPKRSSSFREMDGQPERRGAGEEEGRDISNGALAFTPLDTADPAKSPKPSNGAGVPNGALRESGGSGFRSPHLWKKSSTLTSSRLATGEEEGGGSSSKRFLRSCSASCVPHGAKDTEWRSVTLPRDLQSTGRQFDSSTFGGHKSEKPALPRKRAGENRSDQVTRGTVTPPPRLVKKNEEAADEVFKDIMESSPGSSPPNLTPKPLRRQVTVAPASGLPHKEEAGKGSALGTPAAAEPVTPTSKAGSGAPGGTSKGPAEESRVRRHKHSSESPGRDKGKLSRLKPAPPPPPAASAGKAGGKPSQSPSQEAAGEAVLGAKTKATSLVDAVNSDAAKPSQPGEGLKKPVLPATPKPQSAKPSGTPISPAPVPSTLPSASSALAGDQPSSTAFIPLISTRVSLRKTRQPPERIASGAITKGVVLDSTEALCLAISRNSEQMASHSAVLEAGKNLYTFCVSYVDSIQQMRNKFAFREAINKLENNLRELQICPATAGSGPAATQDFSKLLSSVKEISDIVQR
T3 sequence (Q14012 whole entry): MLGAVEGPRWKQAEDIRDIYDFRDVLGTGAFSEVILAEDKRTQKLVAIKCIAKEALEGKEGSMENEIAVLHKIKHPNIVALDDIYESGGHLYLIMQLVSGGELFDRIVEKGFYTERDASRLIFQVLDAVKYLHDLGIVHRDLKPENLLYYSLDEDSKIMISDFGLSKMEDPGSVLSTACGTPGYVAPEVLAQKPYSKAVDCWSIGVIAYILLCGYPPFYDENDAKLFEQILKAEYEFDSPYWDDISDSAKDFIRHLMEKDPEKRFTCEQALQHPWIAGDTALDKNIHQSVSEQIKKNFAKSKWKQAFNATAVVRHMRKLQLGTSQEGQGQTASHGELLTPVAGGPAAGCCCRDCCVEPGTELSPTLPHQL

| Compound | remaining binding at 1 µM ([1]; ABL1 (F317L)-nonphosphorylated) [%] | remaining binding at 1 µM ([1]; ABL1 (F317L)-phosphorylated) [%] | remaining binding at 1 µM [2] [%] | remaining binding at 1 µM [3] [%] | remaining binding at 1 µM [4] [%] | remaining binding at 1 µM [5] [%] | remaining binding at 1 µM [6] [%] | remaining binding at 1 µM [7] [%] | remaining binding at 1 µM [8] [%] | remaining binding at 1 µM [9] [%] | remaining binding at 1 µM [10] [%] |
| --- | --- | --- | --- | --- | --- | --- | --- | --- | --- | --- | --- |
| Cc1ccc(NC(=O)C2(C(=O)Nc3ccc(F)cc3)CC2)cc1C#Cc1cnc2c(Nc3cnn(C(C)C)c3)cccn12 [Example 78] | 16 | 85 | 10 | 100 | 100 | 97 | 100 | 100 | 100 | 100 | 14 |
| Cc1cn(-c2cc(NC(=O)c3ccc(C)c(C#Cc4cnc5c(Nc6cnn(C)c6)cccn45)c3)cc(C(F)(F)F)c2)cn1 [Example 12, 4-methyl-N-(3-(4-methyl-1H-imidazol-1-yl)-5-(trifluoromethyl)phenyl)-3-((8-((1-methyl-1H-pyrazol-4-yl)amino)imidazo[1,2-a]pyridin-3-yl)ethynyl)benzamide] | 3 | 6 | 11 | 73 | 87 | 69 | 84 | 86 | 47 | 100 | 7 |
| Cc1ccc(C(=O)Nc2ccc(CN3CCN(C)CC3)c(C(F)(F)F)c2)cc1C#Cc1cnc2c(Nc3cnn(C)c3)cccn12 [Example 1, 4-methyl-3-((8-((1-methyl-1H-pyrazol-4-yl)amino)imidazo[1,2-a]pyridin-3-yl)ethynyl)-N-(4-((4-methylpiperazin-1-yl)methyl)-3-(trifluoromethyl)phenyl)benzamide] | 9 | 2 | 1 | 35 | 11 | 0 | 54 | 2 | 18 | 100 | 0 |
